Source: EP0135897A2 (priority 1983, dated 1985)

Columns and labels:
[1] = system: Reispflanzen (Varietät: Asahi); conditions: in vivo
[2] = system: Brusone-Pilzes (Piricularia oryzae); type: in vivo; conditions: Wirkstoff-Konzentration 0,8 g/m^2 applied to the water surface; rice (Asahi) inoculated 4 days later; assessed 7 days after inoculation; three pots per test

Row | Compound | Phyto-toxizität [1] | Bekämpfungs-Index (%) [2] [%]
1 | CC1(CCl)C(CO)C1(Cl)Cl (stereo not drawn) [Verbindung d. Erfindung, 2,2-Dichloro-(cis)-3-methyl-(trans)-3-chloromethylcyclopropanmethanol] | - | 100
2 | CC1(CCl)C(COC(=O)CCl)C1(Cl)Cl [D-1, 2,2-Dichloro-(cis)-3-methyl-(trans)-3-chloromethylcyclopropanmethanol-chloroacetat] | - | 100
